Test results from patent US20220133895A1, “CAMPTOTHECIN-BASED DIMER COMPOUND, ANTICANCER DRUG AND METHOD OF ELIMINATING CANCER STEM CELL” (HUAZHONG UNIVERSITY OF SCIENCE AND TECHNOLOGY, priority 2020, published 2022).

How the values were obtained:
[1] = test system: mouse 4T1 breast cancer orthotopic tumor; test: In vivo anti-tumor activity, intratumoral injection, 4T1 orthotopic model; conditions: for tumor suppression rate: BALB/c mice, CPT 1 mg/kg or CN 2.4 mg/kg intratumoral, NLG 500 ug/mouse gavage
[2] = test system: mouse 4T1 breast cancer orthotopic tumor; test: Effect on antitumor immune response (DC maturation, Treg) in 4T1 tumor mice; type: in vivo; conditions: for regulatory T cells (Treg) in tumors: flow cytometry CD3, CD4, CD25, FoxP3
Excerpt: The effect of the compound CN on antitumor immune response is studied, the specific steps were proceeded as follows. The tumor and adjacent lymph nodes of the mice in Example 4 were stripped. […] The adjacent lymph nodes were squeezed through a 200-mesh screen to prepare a single cell suspension, and the maturation of lymph node dendritic cells (DC cells, CD11c, CD80, CD86) was studied with antibodies.

[3] = test system: mouse 4T1 breast cancer orthotopic tumor; test: Anti-tumor activity of CN@PHF, tail vein, 4T1 orthotopic model; type: in vivo; conditions: CN 2.4 mg/kg, days 1, 4, 7, 10
Excerpt: The anti-tumor activity of CN@PHF in the mouse 4T1 breast cancer orthotopic tumor model was investigated and the specific steps were proceeded as follows:
At the age of 6 weeks, 20 g female BALB/c mice were inoculated with 5×10^5 cells of mouse breast cancer 4T1 cell suspension into the fourth pair of left breast pads on the abdomen of female BALB/c mice to establish a mouse model of 4T1 tumor in situ. When the tumor volume in situ was about 100 mm^3, the mice were randomly divided into 5 groups, 10 mice in each group, and were injected with normal saline, CN, Taxol, Irinotecan, CN@PHF through the tail vein. The dose of CN was 2.4 mg/kg, and the concentrations of Taxol and Irinotecan were the same as the molar concentration of CN. The administration time on the first day was recorded as the first day, and then the above-mentioned doses were administered on the 4th, 7th, and 10th days. From the 1st day, the mouse body weight and tumor volume were measured every other day, and the tumor volume-time curve was drawn. The mice were sacrificed on the 19th day, the tumor in situ was removed, weighed, and photographed. Tumors were stained with HE and TUNEL to study tumor cell apoptosis and stained with Ki67 to study tumor cell proliferation.

[4] = test system: 4T1 (breast cancer) cells; test: In vitro induction of immunogenic cell death; type: cell-based, mouse; conditions: 4T1 cells, 10 μM, 48 hours
Method: The in vitro activity of the compound CN in inducing immunogenic cell death was evaluated.
4T1 (breast cancer) cells were seeded into a 6-well plate at a density of 1×10^5 cells per well and cultured overnight. The cells were treated with PBS, CPT (camptothecin), NLG (IDO inhibitor), CPT+NLG, CN (all drug concentrations were 10 μM) for 48 hours. The supernatant was collected and cultured to detect the release of ATP and HMGB-1. The cells were trypsinized, then incubated with CRT antibody on ice for 30 minutes in the dark, and analyzed by flow cytometry. In addition, CRT eversion was also studied by immunofluorescence imaging. 4T1 cells were seeded into a confocal culture dish at a density of 1×10^5 cells per well and cultured overnight. The cells were treated with PBS, CPT (camptothecin), NLG (IDO inhibitor), CPT+NLG, CN (all drug concentrations were 10 μM) for 48 hours. The cells were washed twice with PBS and incubated with CRT antibody for 30 minutes. Washing was performed twice with PBS, and fixing was then performed with 4% paraformaldehyde. After washing was performed twice with PBS again, the nucleus was stained with DAPI for 30 minutes. After washing was performed twice, the cells were imaged with a confocal microscope.

[5] = test system: cancer stem cells; test: Effect on cancer stem cells (cell cycle, 3D tumor spheroids) from treated 4T1 tumors; type: in vivo, mouse; conditions: for G1-S cell cycle / dormancy of cancer stem cells: CD133, EdU, hoechst33342 flow cytometry
Method: The effect of the compound CN on cancer stem cells is studied, the specific steps were proceeded as follows. In the single cell suspension prepared in Example 6, the cell cycle (CD133, EdU, hoechst33342) of cancer stem cells was stained with antibodies, and the dormancy of the cancer stem cells was analyzed by flow cytometry. […] Fibrinogen was diluted to 20 mg/mL with T7 buffer (pH 7.4, 50 mM Tris, 150 mM NaCl), and then mixed with the above cell suspension in equal volume. 1 μL of thrombin (0.1 U/μL) was added to the 96-well plate in advance, and 50 μL of the mixed cell suspension was added. […] On the seventh day, the cell pellets in the 96-well plate were photographed and counted. The particle size of tumor cell spheroids was measured, and the number of tumor cell spheroids was counted to characterize the stemness and tumor-forming ability of tumor cells.

[6] = molecular target: T1, IDO (Homo sapiens, UniProt P14902); test: In vitro IDO inhibitory activity in IFN-γ-stimulated Hela cells; type: cell-based
T1 construct: endogenous in cells; host or cells: HeLa cells stimulated with human IFN-γ
Method: The inhibitory activity of the compound CN on IDO in vitro was investigated.
Hela cells were plated with a 96-well plate at 4,000 cells/well in DMEM complete medium containing 80 ng/ml of human IFN-γ, and incubated with a series of DMEM medium containing CN or NLG at a concentration of 0 μM, 0.1 μM, 1 μM, 10 μM, and 100 μM for 24 hours after 12 hours. 150 ul culture medium was aspirated, 75 ul trichloroacetic acid aqueous solution (30% w/v) was added, incubated at 50° C. for 30 min, and centrifuged at 3000 rpm for 10 minutes. 100 ul of the supernatant was collected, 100 ul of p-dimethylaminobenzaldehyde glacial acetic acid solution (2%, w/v) was added, placed at room temperature for 10 minutes, and the absorption was detected at 492 nm.

[7] = Reduction responsiveness in GSH solution, by mass spectrometry; type: physicochemical; conditions: 100 mM GSH aqueous solution, stirred 12 hours
Method: Study on the reduction responsiveness of compounds was performed as follows.
A small amount of the compound CN was added to 100 mM GSH aqueous solution and stirred for 12 hours.

[8] = test system: mouse 4T1 breast cancer orthotopic tumor; test: Influence on the cancer stem cell niche, 4T1 orthotopic model; type: in vivo; conditions: tail vein, day 13, CD133, EdU, hoechst33342
Method: At the age of 6 weeks, 20 g female BALB/c mice were inoculated with 5×10^5 cells of mouse breast cancer 4T1 cell suspension into the fourth pair of left breast pads on the abdomen of female BALB/c mice to establish a mouse model of 4T1 tumor in situ. […] The administration time on the first day was recorded as the first day, and then the above-mentioned doses were administered on the 4th, 7th, and 10th days. On the 13th day, 50 μL of Edu (8 mg/ml) was injected into the tumor. Three hours later, the mice were sacrificed, the tumor in situ was stripped and divided into two parts. […] Flow cytometric analysis of the cell cycle (CD133, EdU, hoechst33342) of cancer stem cells was carried out to investigate the effect of drugs on the dormancy of cancer stem cells.

T1 sequence (P14902 whole entry): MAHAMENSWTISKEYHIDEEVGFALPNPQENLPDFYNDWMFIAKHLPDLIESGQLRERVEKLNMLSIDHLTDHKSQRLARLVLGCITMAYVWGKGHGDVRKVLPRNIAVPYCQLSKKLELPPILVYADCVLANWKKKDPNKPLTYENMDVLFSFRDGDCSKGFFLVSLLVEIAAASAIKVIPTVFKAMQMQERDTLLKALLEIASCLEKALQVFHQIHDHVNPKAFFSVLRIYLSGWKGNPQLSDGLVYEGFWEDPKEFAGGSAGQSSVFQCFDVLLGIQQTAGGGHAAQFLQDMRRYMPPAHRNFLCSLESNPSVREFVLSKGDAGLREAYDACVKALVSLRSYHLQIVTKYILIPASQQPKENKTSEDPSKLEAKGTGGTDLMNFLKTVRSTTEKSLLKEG

Structure (SMILES) | tumor suppression rate ([1]; days 1, 4, 7, 10) | tumor volume ([1]; intratumoral injection, 2.4 mg/kg, days 1, 4, 7, 10) | tumor elimination ([1]; intratumoral injection, 8 mice per group, day 15) | weight of the tumor ([1]; intratumoral injection, sacrificed day 15) | regulatory T cells (Treg) in tumors [2] | DC maturation in lymph nodes adjacent to tumors ([2]; flow cytometry CD11c, CD80, CD86) | proportion of mature DC relative to CPT group ([2]; lymph nodes adjacent to tumors) | tumor volume [3] | ATP release relative to CPT and CPT+NLG groups [4] | CRT eversion, confocal imaging [4] | ability to induce CRT eversion relative to CPT group, flow cytometry [4] | ability to induce HMGB-1 [4] | G1-S cell cycle / dormancy of cancer stem cells [5] | number and particle size of 3D spheres of tumor cells ([5]; fibrin gel culture, seventh day) | IC50 [6] | inhibition at 1 µM ([6]; HeLa, read-out: IDO inhibition rate) | reduction responsiveness (degradation products) [7] | dormancy / cycle inhibition of cancer stem cells [8]
CC[C@@]1(OC(=O)OCSSCOC(=O)OC(CC2c3ccccc3-c3cncn32)C2CCCCC2)C(=O)OCc2c1cc1n(c2=O)Cc2cc3ccccc3nc2-1 (stereo partly drawn) [CN] | 85% | significantly smaller than that of the other groups | one tumor was completely eliminated | significantly lower than that of the other groups | reverse the increase in Treg caused by CPT | increased significantly | about twice that of CPT group | significantly smaller than the normal saline group and the positive drugs Taxol and Irinotecan groups | 2-3 times | more CRT eversion | about 1.5 times | significantly stronger than that of the other groups | significantly reduce the G1/S ratio | significantly lower than those in the other groups | ~80 nM | ~100% | degraded to the original camptothecin and NLG919 | –
CC[C@@]1(O)C(=O)OCc2c1cc1n(c2=O)Cc2cc3ccccc3nc2-1 [CPT, camptothecin] | 61.9% | – | – | – | significant increase in Treg | – | – | – | – | – | – | – | block the G1-S cell cycle of cancer stem cells | – | – | – | – | –
CCc1c2c(nc3ccc(OC(=O)N4CCC(N5CCCCC5)CC4)cc13)-c1cc3c(c(=O)n1C2)COC(=O)[C@]3(O)CC [Irinotecan] | – | – | – | – | – | – | – | – | – | – | – | – | – | – | – | – | – | increase the dormancy of cancer stem cells
